Data taken from US12458605B2, “Lipid nanoparticle” (National University Corporation Hokkaido University, priority 2020, dated 2025).

Columns and labels:
[1] = Average particle size and PDI by dynamic light scattering (Zetasizer Nano ZS); type: physicochemical
Protocol: (§1) The average particle size (number-average value) and PDI in PBS(−) and zeta potential in 10 mM HEPES buffer solution (pH 7.4) of lipid nanoparticles were measured using “Zetasizer Nano ZS ZEN3600”, an analyzer utilizing dynamic light scattering (manufactured by Malvern).

[2] = Zeta potential in 10 mM HEPES buffer (pH 7.4); type: physicochemical
Protocol: as §1

[3] = pKa of lipid nanoparticles by TNS (section II); type: physicochemical; details: F7siRNA-loaded LNP; compared with LNP of straight-chain CL4H6 or CL15H6 (FIG. 1)
Protocol: The pKa of lipid nanoparticles was measured using p-toluidino-2-naphthalenesulfonic acid (TNS). First, TNS (final concentration: 0.75 μM) and lipid nanoparticles (final concentration: […]) were mixed in buffer solution adjusted to each pH. The fluorescence intensity of the prepared mixture was measured with a microplate reader. The highest and lowest values among the measured values were taken as 100% and 0% charge rates respectively, and the pH indicating 50% charge rate was calculated as pKa.

[4] = Nucleic acid encapsulation rate by Ribogreen (section II); type: physicochemical; details: for % mRNA encapsulation: NlucmRNA-loaded LNP, 60:10:40:1; for % pDNA encapsulation: pFluc-loaded LNP
Protocol: The encapsulation rates of siRNA, mRNA, and pDNA of lipid nanoparticles were measured using Ribogreen (manufactured by life technologies).

F7 [5] = assay: In vivo F7 knockdown, plasma F7 enzyme activity, ICR mice; details: i.v. 0.003-0.1 mg siRNA/kg, plasma at 24 hours, compared with LNP of CL4H6 or CL15H6 (FIG. 2)
Protocol: Then, each prepared F7siRNA-loaded lipid nanoparticles were administered to ICR mice (4 weeks old, female) and in vivo F7 knockdown activity was examined.
Specifically, each F7siRNA-loaded lipid nanoparticles were intravenously administered to ICR mice at 0.003-0.1 mg siRNA/kg, and plasma F7 enzyme activity at 24 hours later was measured. Relative plasma F7 enzyme activity (%) of mice administered each F7siRNA-loaded lipid nanoparticles was calculated using plasma F7 enzyme activity of untreated mice as 100%. FIG. 2(B) is the results of intravenous administration of each F7siRNA-loaded lipid nanoparticle at 0.1 mg siRNA/kg.

[6] = Average particle size (ζ-Average) and PDI by dynamic light scattering (Zetasizer Nano ZSP); type: physicochemical
How it was run: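 Lipid nanoparticles dispersed in PBS(−) were sized by dynamic light scattering, giving the ζ-Average diameter and polydispersity index (PDI).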

liver = assay: In vivo Fluc activity of FlucmRNA-loaded LNP by in vivo imaging, liver; details: Balb/c mice, FlucmRNA-loaded LNP i.v. 0.1 mg mRNA/kg, 6 hours
How it was run: (§2)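 Female Balb/c mice, 7 weeks old, received LNP i.v. at 0.1 mg mRNA/kg. At 6 h, luciferin was given via tail vein at 1.5 mg per mouse, and liver and spleen luminescence was imaged as Avg Radiance [p/s/cm2/sr] near 560 nm.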

spleen = assay: In vivo Fluc activity of FlucmRNA-loaded LNP by in vivo imaging, spleen; details: Balb/c mice, FlucmRNA-loaded LNP i.v. 0.1 mg mRNA/kg, 6 hours
How it was run: as §2

F7 [7] = assay: In vivo F7 knockdown, plasma F7 enzyme activity (BIOPHEN FVII), Balb/c mice; details: i.v. 0.025 mg siRNA/kg, plasma at 24 hours
How it was run: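 Female Balb/c mice, 5 weeks old, received F7 siRNA lipid nanoparticles i.v. at 0.025 mg siRNA/kg; plasma F7 activity measured chromogenically (BIOPHEN FVII) 24 h later. Values are % of untreated mice, also expressed as a ratio to MC3-containing nanoparticles set at 1.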

[8] = NlucmRNA-loaded LNP, 60:10:40:1
[9] = NlucmRNA-loaded LNP, lipid:DSPC:cholesterol:PEG-DMG 60:10:40:1
[10] = pFluc-loaded LNP, 50:10:40:1.5, N/P ratio 6
[11] = pFluc-loaded LNP, 50:10:40:1.5, N/P ratio 9
[12] = F7siRNA-loaded LNP, 50:10:38.5:1.5, N/P ratio 6
[13] = FlucmRNA-loaded LNP, 50:10:38.5:1.5
[14] = FlucmRNA-loaded LNP, lipid:DSPC:cholesterol:DMG-PEG2K 50:10:38.5:1.5

| SMILES | PdI [1, 8] | ζ-Average (nm) [1, 9] | ζ-Average (nm) [1, 10] | ζ-Average (nm) [1, 11] | PdI ([1]; pFluc-loaded LNP, N/P ratio 6) | PdI ([1]; pFluc-loaded LNP, N/P ratio 9) | ζ-potential (mV) [2, 8] | ζ-potential (mV) ([2]; pFluc-loaded LNP, N/P ratio 6) | ζ-potential (mV) ([2]; pFluc-loaded LNP, N/P ratio 9) | pKa of lipid nanoparticle, compared [3] | % mRNA encapsulation [4] | % pDNA encapsulation ([4]; N/P ratio 6) | % pDNA encapsulation ([4]; N/P ratio 9) | in vivo F7 knockdown activity, compared (F7 [5]) | PDI [6, 12] | ζ-Average (nm) [6, 12] | PDI [6, 13] | ζ-Average (nm) [6, 14] | Fluc Activity in liver (liver) | Fluc Activity in spleen (spleen) | also measured |
| --- | --- | --- | --- | --- | --- | --- | --- | --- | --- | --- | --- | --- | --- | --- | --- | --- | --- | --- | --- | --- | --- |
| CCCN(CCC)CCCCC(O)(CCCCCCOC(=O)C(CCC(C)CC(C)(C)C)C(C)CC(C)(C)C)CCCCCCOC(=O)C(CCC(C)CC(C)(C)C)C(C)CC(C)(C)C (stereo not drawn) [CL4G6, 7-(4-(dipropylamino)butyl)-7-hydroxytridecan-1,13-diyl bis(2-(4.4-dimethylpentan-2-yl)-5,7,7-trimethyloctanoate)] | 0.13 | 109.6 nm | 74.48 nm | 90.6 ± 7 nm | 0.11 | 0.19 ± 0.05 | −1.76 mV | −2.46 mV | −1.3 ± 0.7 mV | lower pKa | 91.7% | 97.6% | 94.5 ± 3.6% | equivalent in vivo F7 knockdown activity | 0.048 | 85.14 nm | 0.030 | 81.21 nm | 4.58E+07 Avg Radiance [p/s/cm2/sr] | 2.08E+06 Avg Radiance [p/s/cm2/sr] | F7 enzyme activity (%) (F7 [7]; untreated mice as 100%): 7.6% |
| CCCCCCCCC(CCCCCC)C(=O)OCCCCCCC(O)(CCCCCCOC(=O)C(CCCCCC)CCCCCCCC)CCCCOC(=O)C1CCN(C)CC1 (stereo not drawn) [CL15F6] | 0.162 | 92.52 nm | 109.4 nm | 105.7 ± 8.6 nm | 0.07 | 0.13 ± 0.02 | −2.16 mV | −2.02 mV | −1.2 ± 0.4 mV | lower pKa | 90.3% | 95.4% | 93.1 ± 3.3% | equivalent in vivo F7 knockdown activity | 0.044 | 105.9 nm | 0.002 | 115.50 nm | 6.28E+06 Avg Radiance [p/s/cm2/sr] | 5.76E+06 Avg Radiance [p/s/cm2/sr] | F7 enzyme activity (Ratio using MC3 as 1) (F7 [7]; relative plasma F7 activity of MC3 LNP as 1): 1.52 |
